Tests used:
Type in all cases: functional, organism-based
Escherichia coli [1] = assay: Antimicrobial activity against Escherichia coli ATCC 25922 by broth microdilution method
Escherichia coli [2] = assay: (§1) Antimicrobial activity against drug-resistant Escherichia coli isolate 2 expressing beta-lactamase CTX-M-15 isolated from patient past medical history included multiple courses of compound treatment, multiple sclerosis, pulmonary embolism, seizure disorder, tracheostomy for respiratory failure, gastrostomy secondary to dysphagia, congestive heart failure, diabetes mellitus, and peripheral inserted central by Etest
Escherichia coli [3] = assay: Antimicrobial activity against drug-resistant Escherichia coli isolate 1 expressing beta-lactamase CTX-M-15 isolated from urine of patient with history of hypertension, hyperlipidemia by broth microdilution method
Escherichia coli [4] = assay: Antimicrobial activity against Escherichia coli ATCC 25922 by Etest
Escherichia coli [5] = assay: as §1, with “microdilution method” for “Etest”
Escherichia coli [6] = assay: Antimicrobial activity against drug-resistant Escherichia coli isolate 1 expressing beta-lactamase CTX-M-15 isolated from urine of patient with history of hypertension, hyperlipidemia by Etest

Sequence | MBC (Escherichia coli [1]) [µg/mL] | MIC (Escherichia coli [1]) [µg/mL] | MIC (Escherichia coli [2]) [µg/mL] | MBC (Escherichia coli [3]) [µg/mL] | MIC (Escherichia coli [3]) [µg/mL] | MIC (Escherichia coli [4]) [µg/mL] | MBC (Escherichia coli [5]) [µg/mL] | MIC (Escherichia coli [5]) [µg/mL] | MIC (Escherichia coli [6]) [µg/mL]
COLISTIN | 1 | 1 | 16 | 16 | 16 | 1.5 | 32 | 32 | 16
POLYMYXIN B | 0.5 | 0.5 | 24 | 32 | 16 | 1 | 32 | 16 | 16

From ChEMBL document CHEMBL1687832, “Polymyxin-resistant clinical isolates of Escherichia coli” (Antimicrob Agents Chemother, 2011)
